# Laboratory results: PubChem BioAssay AID1845209 (Molecular Pharmacology Branch, DTP, NCI, 2023)
# Tested on: NCI-H211 tumor spheroids, viability percent test/control
# Test: Anticancer human tumor NCI-H211 cell line growth inhibition;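 also: spheroids exposed to agents for seven days before readout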
# Settings: spheroids with HUVEC and MSC; for IC50: curve of first compound; for viability, T/C: stronger effect = lower value
# Summary of the method: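 Single agents and combinations were tested on spheroids built from tumor cells plus HUVEC and hMSC, at half-log dilutions starting at or near clinical Cmax, else 10 microM; final DMSO 0.25% (v/v).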
# [1] = second compound 0.003 µM, first compound 0.0316 µM
# [2] = second compound 0.003 µM, first compound 0.1 µM
# [3] = second compound 0.003 µM, first compound 0.316 µM
# [4] = second compound 0.003 µM, first compound 1 µM
# [5] = second compound 0.003 µM, first compound 3.16 µM
# [6] = second compound 0.003 µM, first compound 10 µM
# [7] = second compound 0.00949 µM, first compound 0.0316 µM
# [8] = second compound 0.00949 µM, first compound 0.1 µM
# [9] = second compound 0.00949 µM, first compound 0.316 µM
# [10] = second compound 0.00949 µM, first compound 1 µM
# [11] = second compound 0.00949 µM, first compound 3.16 µM
# [12] = second compound 0.00949 µM, first compound 10 µM
# [13] = second compound 0.03 µM, first compound 0.0316 µM
# [14] = second compound 0.03 µM, first compound 0.1 µM
# [15] = second compound 0.03 µM, first compound 0.316 µM
# [16] = second compound 0.03 µM, first compound 1 µM
# [17] = second compound 0.03 µM, first compound 3.16 µM
# [18] = second compound 0.03 µM, first compound 10 µM
# [19] = second compound 0.0949 µM, first compound 0.0316 µM
# [20] = second compound 0.0949 µM, first compound 0.1 µM
# [21] = second compound 0.0949 µM, first compound 0.316 µM
# [22] = second compound 0.0949 µM, first compound 1 µM
# [23] = second compound 0.0949 µM, first compound 3.16 µM
# [24] = second compound 0.0949 µM, first compound 10 µM
# [25] = second compound 0.3 µM, first compound 0.0316 µM
# [26] = second compound 0.3 µM, first compound 0.1 µM
# [27] = second compound 0.3 µM, first compound 0.316 µM
# [28] = second compound 0.3 µM, first compound 1 µM
# [29] = second compound 0.3 µM, first compound 3.16 µM
# [30] = second compound 0.3 µM, first compound 10 µM
compound,measurement,setting,value
COc1cc(C)[nH]c(=O)c1CN1CCc2c(Cl)cc(C(OC)C3COC3)c(Cl)c2C1=O (stereo not given) + COc1cc2c(cc1O)CCNC21CSC2c3c(OC(C)=O)c(C)c4c(c3C(COC1=O)N1C(O)C3Cc5cc(C)c(OC)c(O)c5C(C21)N3C)OCO4,IC50,second compound 30 pM,> 10000 nM
same,IC50,second compound 94.9 pM,< 31.6 nM
same,IC50,second compound 0.0003 µM,< 31.6 nM
same,IC50,second compound 0.000949 µM,< 31.6 nM
same,IC50,second compound 0.003 µM,< 31.6 nM
same,"viability, T/C","second compound 30 pM, first compound 0.0316 µM",94.3%
same,"viability, T/C","second compound 30 pM, first compound 0.1 µM",98.4%
same,"viability, T/C","second compound 30 pM, first compound 0.316 µM",95%
same,"viability, T/C","second compound 30 pM, first compound 1 µM",90.2%
same,"viability, T/C","second compound 30 pM, first compound 3.16 µM",81.9%
same,"viability, T/C","second compound 30 pM, first compound 10 µM",77.2%
same,"viability, T/C","second compound 94.9 pM, first compound 0.0316 µM",13.8%
same,"viability, T/C","second compound 94.9 pM, first compound 0.1 µM",22.7%
same,"viability, T/C","second compound 94.9 pM, first compound 0.316 µM",22.8%
same,"viability, T/C","second compound 94.9 pM, first compound 1 µM",16%
same,"viability, T/C","second compound 94.9 pM, first compound 3.16 µM",10.4%
same,"viability, T/C","second compound 94.9 pM, first compound 10 µM",5.32%
same,"viability, T/C","second compound 0.0003 µM, first compound 0.0316 µM",0.73%
same,"viability, T/C","second compound 0.0003 µM, first compound 0.1 µM",0.85%
same,"viability, T/C","second compound 0.0003 µM, first compound 0.316 µM",0.77%
same,"viability, T/C","second compound 0.0003 µM, first compound 1 µM",0.69%
same,"viability, T/C","second compound 0.0003 µM, first compound 3.16 µM",0.78%
same,"viability, T/C","second compound 0.0003 µM, first compound 10 µM",0.85%
same,"viability, T/C","second compound 0.000949 µM, first compound 0.0316 µM",0.63%
same,"viability, T/C","second compound 0.000949 µM, first compound 0.1 µM",0.69%
same,"viability, T/C","second compound 0.000949 µM, first compound 0.316 µM",0.66%
same,"viability, T/C","second compound 0.000949 µM, first compound 1 µM",1.2%
same,"viability, T/C","second compound 0.000949 µM, first compound 3.16 µM",0.82%
same,"viability, T/C","second compound 0.000949 µM, first compound 10 µM",0.76%
same,"viability, T/C",[1],0.12%
same,"viability, T/C",[2],0.11%
same,"viability, T/C",[3],0.11%
same,"viability, T/C",[4],0.1%
same,"viability, T/C",[5],0.11%
same,"viability, T/C",[6],0.56%
COc1cc(C)[nH]c(=O)c1CN1CCc2c(Cl)cc(C(OC)C3COC3)c(Cl)c2C1=O (stereo not given) + CC[C@@]1(O)C(=O)OCc2c1cc1n(c2=O)Cc2cc3c(CN(C)C)c(O)ccc3nc2-1,IC50,second compound 0.003 µM,> 10000 nM
same,IC50,second compound 0.00949 µM,44.3 nM
same,IC50,second compound 0.03 µM,< 31.6 nM
same,IC50,second compound 0.0949 µM,< 31.6 nM
same,IC50,second compound 0.3 µM,< 31.6 nM
same,"viability, T/C",[1],97.8%
same,"viability, T/C",[2],94.2%
same,"viability, T/C",[3],94.5%
same,"viability, T/C",[4],80.2%
same,"viability, T/C",[5],84.6%
same,"viability, T/C",[6],79.1%
same,"viability, T/C",[7],61.2%
same,"viability, T/C",[8],23.1%
same,"viability, T/C",[9],19.7%
same,"viability, T/C",[10],23.1%
same,"viability, T/C",[11],20.5%
same,"viability, T/C",[12],17.4%
same,"viability, T/C",[13],2.26%
same,"viability, T/C",[14],1.33%
same,"viability, T/C",[15],1.49%
same,"viability, T/C",[16],1.03%
same,"viability, T/C",[17],0.89%
same,"viability, T/C",[18],1.35%
same,"viability, T/C",[19],1.49%
same,"viability, T/C",[20],1.42%
same,"viability, T/C",[21],1.65%
same,"viability, T/C",[22],1.41%
same,"viability, T/C",[23],1.22%
same,"viability, T/C",[24],0.83%
same,"viability, T/C",[25],1.31%
same,"viability, T/C",[26],1.63%
same,"viability, T/C",[27],1.29%
same,"viability, T/C",[28],1.18%
same,"viability, T/C",[29],1.75%
same,"viability, T/C",[30],0.92%
CC1COCCN1c1cc(-c2ccnn2C)c2ccnc(-c3ccn[nH]3)c2n1 (stereo not given) + CC[C@@]1(O)C(=O)OCc2c1cc1n(c2=O)Cc2cc3c(CN(C)C)c(O)ccc3nc2-1,IC50,second compound 0.003 µM,< 31.6 nM
same,IC50,second compound 0.00949 µM,< 31.6 nM
same,IC50,second compound 0.03 µM,< 31.6 nM
same,IC50,second compound 0.0949 µM,< 31.6 nM
same,IC50,second compound 0.3 µM,< 31.6 nM
same,"viability, T/C",[1],1.02%
same,"viability, T/C",[2],1.19%
same,"viability, T/C",[3],1.59%
same,"viability, T/C",[4],0.56%
same,"viability, T/C",[5],0.45%
same,"viability, T/C",[6],0.65%
same,"viability, T/C",[7],1.86%
same,"viability, T/C",[8],0.7%
same,"viability, T/C",[9],1.15%
same,"viability, T/C",[10],0.42%
same,"viability, T/C",[11],0.4%
same,"viability, T/C",[12],0.58%
same,"viability, T/C",[13],1.1%
same,"viability, T/C",[14],1.24%
same,"viability, T/C",[15],0.67%
same,"viability, T/C",[16],1.07%
same,"viability, T/C",[17],0.38%
same,"viability, T/C",[18],0.47%
same,"viability, T/C",[19],0.72%
same,"viability, T/C",[20],0.9%
same,"viability, T/C",[21],0.83%
same,"viability, T/C",[22],0.52%
same,"viability, T/C",[23],0.66%
same,"viability, T/C",[24],1.17%
same,"viability, T/C",[25],1%
same,"viability, T/C",[26],0.97%
same,"viability, T/C",[27],0.71%
same,"viability, T/C",[28],0.83%
same,"viability, T/C",[29],1.25%
same,"viability, T/C",[30],0.81%
